Assay results published in ChEMBL document CHEMBL3997807, “Isatin-β-thiocarbohydrazones: Microwave-assisted synthesis, antitumor activity and structure-activity relationship” (Eur J Med Chem, 2017).

Tests used:
HeLa = assay: Growth inhibition of human HeLa cells by MTT assay; type: functional, cell-based
COS-7 = assay: Growth inhibition of African green monkey COS7 cells by MTT assay; type: functional, cell-based; conditions: Chlorocebus aethiops
Ehrlich [1] = assay: Antitumor activity against mouse EAC cells implanted in Swiss albino mouse assessed as increase in mean life span at 0.5 mg for 9 days relative to control; type: functional
Ehrlich [2] = assay: Antitumor activity against mouse EAC cells implanted in Swiss albino mouse assessed as tumor volume in ascitic fluid at 0.5 mg for 9 days (reference value: 9.85 mL); type: functional
Ehrlich [3] = assay: Antitumor activity against mouse EAC cells implanted in Swiss albino mouse assessed as RBC count in blood at 0.5 mg for 9 days (reference value: 3.69 10^6/mm3); type: functional
Ehrlich [4] = assay: Antitumor activity against mouse EAC cells implanted in Swiss albino mouse assessed as hemoglobin count in blood at 0.5 mg for 9 days (reference value: 8.15 g/dL); type: functional
Ehrlich [5] = assay: Antitumor activity against mouse EAC cells implanted in Swiss albino mouse assessed as viable tumor cell count in ascitic fluid at 0.5 mg for 9 days (reference value: 83.2 10^6/100uL); type: functional
Ehrlich [6] = assay: Antitumor activity against mouse EAC cells implanted in Swiss albino mouse assessed as WBC count in blood at 0.5 mg for 9 days (reference value: 23.96 10^3/mm3); type: functional

Compound | IC50 (HeLa) [µM] | IC50 (COS-7) [µM] | ILS (Ehrlich [1]) [%] | Activity (Ehrlich [2]) [mL] | Activity (Ehrlich [3]) [×10⁶ /mm3] | Activity (Ehrlich [4]) [g/dL] | Activity (Ehrlich [5]) [×10⁶ /100microL] | Activity (Ehrlich [6]) [×10³ /mm3]
COc1ccc(/C=N/NC(=S)N/N=C2\C(=O)Nc3ccc(C)cc32)c(OC)c1 | > 50 | > 50 |  |  |  |  |  | 
O=C1Nc2ccc(Br)cc2/C1=N/NC(=S)N/N=C/c1c(F)cccc1Cl | 1.61 | 2.56 | 72.4 | 6.7 | 4.09 | 9.96 | 57.5 | 13.05
COc1ccc(/C=N/NC(=S)N/N=C2\C(=O)Nc3ccc(Br)cc32)cc1O | 2.22 | 3.09 | 24.1 | 7.8 | 3.86 | 9.11 | 66.78 | 19.48
Cc1ccc2c(c1)/C(=N/NC(=S)N/N=C/c1ccc(Br)cc1)C(=O)N2 | > 50 | > 50 |  |  |  |  |  | 
Cc1ccc2c(c1)/C(=N/NC(=S)N/N=C/c1c(F)cccc1Cl)C(=O)N2 | 1.51 | 2.19 | 72.4 | 6.2 | 4.19 | 10.09 | 51.52 | 12.26
COc1ccc(/C=N/NC(=S)N/N=C2\C(=O)Nc3ccc(Br)cc32)c(OC)c1 | > 50 | > 50 |  |  |  |  |  | 
COc1ccc(/C=N/NC(=S)N/N=C2\C(=O)Nc3ccc(C)cc32)cc1O | 2.73 | 3.19 | 110.9 | 3.26 | 4.46 | 11.15 | 38.75 | 9.23
O=C1Nc2ccc(Br)cc2/C1=N/NC(=S)N/N=C/c1ccccc1Br | > 50 | > 50 |  |  |  |  |  | 
O=C1Nc2ccc(Br)cc2/C1=N/NC(=S)N/N=C/c1ccc(-c2ccccc2)cc1 | 3.25 | > 50 |  |  |  |  |  | 
Cc1ccc2c(c1)/C(=N/NC(=S)N/N=C/c1cc3ccccc3c3ccccc13)C(=O)N2 | > 50 | > 50 |  |  |  |  |  | 
O=C1Nc2ccc(Br)cc2/C1=N/NC(=S)N/N=C/c1ccc(Br)cc1 | 4.68 | 5.18 |  |  |  |  |  | 
Cc1ccc(O)c(/C=N/NC(=S)N/N=C2\C(=O)Nc3ccc(Br)cc32)c1 | > 50 | > 50 |  |  |  |  |  | 
Cc1ccc2c(c1)/C(=N/NC(=S)N/N=C/c1c(Cl)cccc1Cl)C(=O)N2 | 1.79 | 3.87 |  |  |  |  |  | 
Cc1ccc2c(c1)/C(=N/NC(=S)N/N=C/c1ccc3ccccc3c1)C(=O)N2 | > 50 | > 50 |  |  |  |  |  | 
O=C1Nc2ccc(Br)cc2/C1=N/NC(=S)N/N=C/c1ccc2ccccc2c1 | > 50 | > 50 |  |  |  |  |  | 
Cc1ccc2c(c1)/C(=N/NC(=S)N/N=C/c1ccccn1)C(=O)N2 | 3.15 | 2.12 | 189.6 | 2.52 | 5.28 | 12.93 | 24.22 | 7.89
O=C1Nc2ccc(Br)cc2/C1=N/NC(=S)N/N=C/c1c(Cl)cccc1Cl | 3.53 | 6.73 |  |  |  |  |  | 
Cc1ccc2c(c1)/C(=N/NC(=S)N/N=C/c1ccccc1Br)C(=O)N2 | > 50 | > 50 |  |  |  |  |  | 
Cc1ccc(O)c(/C=N/NC(=S)N/N=C2\C(=O)Nc3ccc(C)cc32)c1 | > 50 | > 50 |  |  |  |  |  | 
O=C1Nc2ccc(Br)cc2/C1=N/NC(=S)N/N=C/c1cc2ccccc2c2ccccc12 | > 50 | > 50 |  |  |  |  |  | 
Cc1ccc2c(c1)/C(=N/NC(=S)N/N=C/c1ccc(-c3ccccc3)cc1)C(=O)N2 | > 50 | > 50 |  |  |  |  |  | 
COc1cccc2c1C(=O)c1c(O)c3c(c(O)c1C2=O)C[C@@](O)(C(=O)CO)C[C@@H]3O[C@H]1C[C@H](N)[C@H](O)[C@H](C)O1 [DOXORUBICIN] | 2.05 | 3.04 |  |  |  |  |  | 
O=c1[nH]cc(F)c(=O)[nH]1 [FLUOROURACIL] |  |  | 237.9 | 1.6 | 5.21 | 12.96 | 20.17 | 8.86
